Reference: US7250432B2, “Pharmaceutical compositions of diaryl-isoxazole derivatives for the prevention and treatment of cancers” (Korea Research Institute of Bioscience and Biotechnology, priority 2003, dated 2007)

Key:
[1] = tested on: breast cancer cell line (MDA-MB-231); assay: Analysis of cell migration (modified Boyden chamber); type: cell-based; conditions: for Cell migration inhibition rate / inhibition at 1 µM / inhibition at 10 µM: breast cancer cells, 18 hours; for inhibition at 1 µM / inhibition at 10 µM: read-out: Cell migration inhibition rate
Description: In order to investigate cell migration, modified Boyden chamber and 8 μm pore membrane were purchased from Neuro probe Co. and staining solution for cell staining, Giemsa solution, was purchased from Sigma Co. Other instruments used were CO2 incubator for cell culture, centrifuge for cell washing and inverted microscope (TE 300, Nikon, Japan) for observation.
Particularly, 90% grown up cells on a culture plate were isolated using trypsin/EDTA. The cells were treated with soybean trypsin inhibitor, and washed with serum free medium three times. Then, cell density was adjusted to 4×10^5 cells/ml. The compounds of Example 1-6 and a medium supplemented with 10% FBS were put by 30 μl each in a chamber well of the bottom of modified Boyden chamber, on which 8 μm pore membrane was put. Silicon gasket was placed over and finally a top plate was put on the gasket and fastened with a nut. The cultured cells were put in a well of top plate by 50 μl. The chamber was rapped and further cultured in a 37° C. 5% CO2 incubator for 18 hours.
18 hours later, the nut was taken out. Membrane was separated and fixed in methanol for 10 minutes, followed by drying in the air. After membrane was completely dried, it was stained in Giemsa solution for 90 minutes. At that time, the staining solution was diluted with distilled water at the ratio of 1:10 before use. Upon competing staining, the membrane was dipped in distilled water for about 10 seconds for washing. The membrane was put on a cover slip with a part having cells not shifted heading up and scrubbed with a cotton swab carefully. Manicure was put on the edge of the cover slip, which was then fixed well on a slide glass. The number of migrated cells on the sample prepared above was investigated under inverted microscope.
Cell migration inhibition rate (%)=100−[Number of migrated cells treated with test samples/Number of migrated cells of control]×100
For a control group, only 1% dimethyl sulfoxide […]) was added instead of a compound of the present invention.

[2] = tested on: HUVEC; assay: in vitro endothelial morphogenesis assay (tube formation); type: cell-based, human
Description: Angiogenesis inhibition activity of the compound of the present invention was investigated by in vitro endothelial morphogenesis assay using human originated cell line HUVEC.
24-well cell culture plate and matrigel matrix were purchased from BD biosciences Co. Other instruments used for the experiments were CO2 incubator for cell culture and inverted microscope (TE 300, Nikon, Japan) equipped with a digital camera for observation and confirmation of the result.
Particularly, starvation of HUVECs on a serum free medium was performed for overnight. Each well of 24-well cell culture plate was coated with 0.2 Ml of matrigel matrix, which was cultured in a 37° C. incubator for 1 hour. 0.2 Ml of cell culture solution with the cell density of 20000 was put in each well, which was further cultured in a CO2 incubator for 30 minutes. Then, a fresh medium, which was diluted with different concentrations of the compounds of Example 1-6, was given to each well. 1% serum was added to the wells, followed by further culture for 24 hours. Tube formation by HUVECs is observed. In this invention, inhibition of tube formation by the compound of the present invention was observed under inverted microscope, and the results were shown in FIG. 2 and FIG. 3. […]

[3] = tested on: zebrafish; assay: Angiogenesis inhibition in zebrafish embryos (subintestinal vessels); type: in vivo; conditions: FIG. 4
Description: Experimental instruments used for the invention were temperature-controlled incubator for the incubation of embryo and inverted microscope (TE 300, Nikon, Japan) equipped with a digital camera for observation and confirmation for the results.
Embryos of zebrafish were loaded on a 96-well plate by three embryos per well. The embryos were confirmed to be synchronized embryos which means one day has passed after development. The compounds of the present invention were dissolved in 0.1% DMSO to prepare different concentrations for each compound. Each compound was treated to 4 wells and inhibition of subintestinal vessels (SIVs) in 12 embryos was investigated. To prepare a control, 8 wells were treated with 0.1% DMSO (in embryo water: 0.2 g/l instant ocean salt) (Randall T. Peterson, et al, Proc. Natl. Aced. Sci. USA, 2000, 97: 12965).
For the observation of angiogenic vessels (SIVs), an rmmunological approach of Catherine E. Willet, et al. (Catherine E. Willet, et al., Angiogenesis, 1999, 3: 353), was used in the present invention. Particularly, three days after development, an embryo was fixed in 4% paraformaldehyde at room temperature for 2 hours. The embryo was washed twice with PBS, and dehydrated step by step with PBS, 25%, 50%, 75% and 100% methanol. Then, the embryo was rehydrated step by step with 100%, 75%, 50% and 25% methanol and PBS. […]

[4] = Acute oral toxicity test in rats; type: in vivo
Description: 6-week old SPF (specific pathogen-free) SD line rats were used in the acute toxicity test. Compound 1 of the present invention was suspended in 0.5% methylcellulose solution and orally administered once to 2 rats per group. Death, clinical symptoms, and weight change in rats were observed, hematological tests and biochemical tests of blood were performed, and any abnormal signs in the gastrointestinal organs of chest and abdomen were checked with eyes during autopsy.

[5] = Homo sapiens, MDA-MB-231, 10 uM

For “5-(2,4-dimethoxy-5-ethylphenyl)-4-(4-bromophenyl)isoxazole [Example 2]”, the “Cell migration inhibition rate” value ([1]; 1 uM) was 90.80% and the “Cell migration inhibition rate” value ([1]; 10 uM) was 94.80%.
With `CCc1cc(-c2oncc2-c2ccc(OC)cc2)c(O)cc1OC` [Example 1, 5-(5-ethyl-2-hydroxy-4-methoxyphenyl)-4-(4-methoxyphenyl)isoxazole] the inhibition at 1 µM ([1]; Homo sapiens, MDA-MB-231, 1 uM) was 92.3%, the inhibition at 10 µM [1, 5] was 94.5% and the inhibition at 0.05 µM ([1]; Homo sapiens, 50 nM, MDA-MB-231, FIG. 1) was ≤ 50%. For the same molecule, the “inhibition of tube formation in vascular endothelial cells” value ([2]; 0.01 μM, FIG. 2) was “already detected”, the “inhibition of tube formation in vascular endothelial cells” value ([2]; 1 μM, FIG. 3) was “inhibited tube formation” and the “inhibition of angiogenesis in zebrafish” value ([3]; 0.5 μM) was “inhibited angiogenesis”. For the same molecule, the inhibition at 0.5 µM ([3]; Danio rerio, 500 nM) was ≤ 50%, the LD50 ([4]; SD, rat, in vivo, rats, oral, read-out: estimated LD50) was > 1500 mg/kg and the “clinical symptoms, weight change, death” value ([4]; rat, in vivo, po) was “did not cause any specific clinical symptoms, weight change, or death”. The “hematological tests, biochemical tests of blood, autopsy” value ([4]; rat, in vivo, po) was “No change was observed” and the “level up to which no toxic change was caused” value ([4]; rats, single oral administration) was ≤ 1000 mg/kg.
Molecule `CCc1cc(-c2oncc2-c2ccc(OC)cc2)c(OC)cc1OC` [Example 3, 5-(2,4-dimethoxy-5-ethylphenyl)-4-(4-methoxyphenyl)isoxazole] has an inhibition at 1 µM ([1]; Homo sapiens, MDA-MB-231, 1 uM) of 68.4% and an inhibition at 10 µM [1, 5] of 82.5%.
Molecule `CCc1cc(-c2oncc2-c2ccc(OC)cc2)c(OCc2ccccc2)cc1OC` [Example 4, 5-(2-benzyloxy-5-ethyl-4-methoxyphenyl)-4-(4-methoxyphenyl)isoxazole] has an inhibition at 1 µM ([1]; Homo sapiens, MDA-MB-231, 1 uM) of 54.6% and an inhibition at 10 µM [1, 5] of 70.1%.
For `CCc1cc(-c2oncc2-c2ccc(O)cc2)c(O)cc1OC` [Example 5, 5-(5-ethyl-2-hydroxy-4-methoxyphenyl)-4-(4-hydroxyphenyl)isoxazole], the inhibition at 1 µM ([1]; Homo sapiens, MDA-MB-231, 1 uM) was 43.5% and the inhibition at 10 µM [1, 5] was 43.3%.
Molecule `CCc1cc(-c2oncc2-c2ccc(O)cc2)c(O)cc1O` [Example 6, 5-(2,4-dihydroxy-5-ethylphenyl)-4-(4-hydroxyphenyl)isoxazole] has an inhibition at 1 µM ([1]; Homo sapiens, MDA-MB-231, 1 uM) of 79.5% and an inhibition at 10 µM [1, 5] of 79.4%.
